Values quoted from earlier work, collected in patent publication US20130280348A1, “Carbon dioxide and saline nasal delivery methods and treatments” (Glynn Tech, Inc., priority 2012, published 2013).

What was measured:
[1] = tested on: seasonal allergic rhinitis (SAR); details: intranasal
[2] = tested on: nasal allergen challenge (grass or ragweed allergen) in subjects with SAR

sensation reported by subjects during exposure ([2]; during 20-second exposure to CO(2)): transient burning sensation
SMILES: O=C=O [CO(2), carbon dioxide]
symptoms of seasonal allergic rhinitis (SAR) [1]: reduce symptoms
histamine levels in ipsilateral nasal secretions ([2]; after pretreatment with CO(2), increased significantly with sham treatment): did not increase
ipsilateral secretion weights ([2]; compared with no treatment): numerically reduced
sneezes ([2]; compared with no treatment, 12 subjects with SAR, 20-second CO(2) exposure 30 minutes before challenge, p=0.05): significant reduction
bilateral runny nose symptoms ([2]; compared with no treatment, p=0.01): significant reduction
contralateral secretion weights (reflex secretory response to allergen, primary outcome) ([2]; compared with no treatment, p=0.04): significant reduction
acute response to allergen challenge ([2]; treatment with nasal CO(2)): partial reduction
reflex responses ([2]; treatment with nasal CO(2)): reduced
